Km data for one compound are collected here from doi:10.1101/2020.01.28.923938v1 (biorxiv, 2020).

This test has as its target CYP2D6 (Homo sapiens, UniProt P10635). Nature of the test: in situ kinetics of dextrorphan formation in HLM, ADE-OPI-MS. Format: biochemical.

Sequence of CYP2D6 (P10635 whole entry): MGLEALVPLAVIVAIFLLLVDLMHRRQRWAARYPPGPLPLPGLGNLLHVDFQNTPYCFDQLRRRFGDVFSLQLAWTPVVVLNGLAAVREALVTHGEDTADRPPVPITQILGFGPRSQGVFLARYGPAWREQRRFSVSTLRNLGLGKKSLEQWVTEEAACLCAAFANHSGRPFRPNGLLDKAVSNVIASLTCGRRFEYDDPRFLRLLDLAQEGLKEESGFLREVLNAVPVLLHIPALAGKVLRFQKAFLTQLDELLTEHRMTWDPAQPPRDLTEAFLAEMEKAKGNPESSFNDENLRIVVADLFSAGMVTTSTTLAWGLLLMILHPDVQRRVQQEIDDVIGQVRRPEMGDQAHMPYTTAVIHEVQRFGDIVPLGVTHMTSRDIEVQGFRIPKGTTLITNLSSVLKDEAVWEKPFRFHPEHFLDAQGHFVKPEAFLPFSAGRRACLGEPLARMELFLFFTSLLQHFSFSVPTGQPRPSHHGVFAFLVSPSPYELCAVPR

As to `COc1ccc2c(c1)[C@]13CCCC[C@@H]1[C@H](C2)N(C)CC3` [dextromethorphan], the Km came out at 3.79 µM.
